Test system: protéine tyrosine hydroxylase (TH)
Assay: Induction of tyrosine hydroxylase in the locus coeruleus of mice (immunodetection and image analysis of brain sections)
Type: in vivo, souris Balb/C
Conditions: i.p. 20 mg/kg, single injection, 3 days after, % par rapport à la valeur moyenne du groupe témoin; for quantité de TH au niveau du LC, coupe 1: coupe 1 du LC (sens antérieur vers postérieur); for quantité de TH au niveau du LC, coupe 2: coupe 2 du LC (sens antérieur vers postérieur); for quantité de TH au niveau du LC, coupe 3: coupe 3 du LC (sens antérieur vers postérieur); for quantité de TH au niveau du LC, coupe 4: coupe 4 du LC (sens antérieur vers postérieur); for quantité de TH au niveau du LC, coupe 5: coupe 5 du LC (sens antérieur vers postérieur); for quantité de TH au niveau du LC, coupe 6: coupe 6 du LC (sens antérieur vers postérieur); for quantité de TH au niveau du LC, coupe 7: coupe 7 du LC (sens antérieur vers postérieur); for quantité de TH au niveau du LC, coupe 8: coupe 8 du LC (sens antérieur vers postérieur)
From the text: Il est recherché, parmi les dérivés, ceux qui sont capables d'induire une augmentation de la protéine tyrosine hydroxylase (TH) dans le cerveau de la souris Balb/C, au niveau du locus coeruleus (LC).
Les animaux utilisés sont des souris mâles de la lignée pure Balb/C (Charles River Laboratories), âgées de 7 à 8 semaines au moment du traitement.
Les souris reçoivent une injection unique par voie intrapéritonéale du composé à tester, dissous dans une solution d'HCl 0,04 M (contrôle correspondant : HCl […]) si le composé est suffisamment soluble, ou dans l'huile d'olive 90 % / DMSO 10 % (contrôle correspondant : huile d'olive 90 % / DMSO 10 %) pour les composés insolubles en milieu aqueux.
Trois jours après l'injection de chaque molécule, tous les animaux sont sacrifiés par décapitation. Les cerveaux extraits sont ensuite congelés dans de l'azote liquide et conservés à -80° C.
Des coupes coronales de 8 microns d'épaisseur sont pratiquées le long de l'axe postéro-antérieur du LC et fixées. Les coupes sont transférées sur membranes Immobilon-P. La TH est mesurée par immunodétection et analyse d'image.

| SMILES | quantité de TH au niveau du LC, coupe 1 | quantité de TH au niveau du LC, coupe 2 | quantité de TH au niveau du LC, coupe 3 | quantité de TH au niveau du LC, coupe 4 | quantité de TH au niveau du LC, coupe 5 | quantité de TH au niveau du LC, coupe 6 | quantité de TH au niveau du LC, coupe 7 | quantité de TH au niveau du LC, coupe 8 | other results |
| --- | --- | --- | --- | --- | --- | --- | --- | --- | --- |
| N#CCN1CCC[C@@H]2C(=O)N3c4ccccc4C[C@H]3[C@@H]21 (racemic) [Exemple 10, [(4aSR,11aSR,11bRS)-5-Oxo-3,4,4a,11,11a,11b-hexahydro-2H,5H-pyrido[2',3':3,4]pyrrolo[1,2-a]indol-1-yl]acétonitrile] | 58% | 50% | 49% | 47% | 34% | 26% | 18% | 1% | – |
| Cc1ccc2c(c1)CC1C3=C(CCCN3C)C(=O)N21 (racemic) [Exemple 40, (11aRS)-1,9-Diméthyl-1,2,3,4,11,11a-hexahydropyrido [2',3':3,4] pyrrolo[1,2-a]indol-5-one] | 72% | 96% | 66% | 66% | 58% | 34% | 39% | 4% | – |
| C=CCN1CCC[C@H]2C(=O)N3c4ccccc4C[C@H]3[C@@H]21 [Exemple 44, (4aR,11aS,11bR)-1-allyl-1,2,3,4a,11,11a,11b-octahydropyrido[2':3':3.4]pyrrolo[1,2-a]indol-5-one] | 83% | 99% | 78% | 58% | 38% | 29% | 18% | 3% | – |
| CN1CCC[C@H]2C(=O)N3c4ccccc4C[C@@H]3[C@H]21 [Exemple 52, (4aR,11aR,11bS)-1-méthyl-1,2,3,4,4a,11,11a,11b-octahydropyrido[2'3':3,4]pyrrolo[1,2-a]indol-5-one] | 69% | 86% | 79% | 77% | 40% | 22% | 12% | 1% | – |
| C=CCN1CCC[C@@H]2C(=O)N3c4ccccc4C[C@@H]3[C@H]21 [Exemple 43, (4aS,11aR,11bS)-1-Allyl-1,2,3,4,4a,11,11a,11b-octahydropyrido[2',3':3,4]pyrrolo[1,2-a]indol-5-one] | – | – | – | – | – | – | 9% | – | quantité de TH au niveau du LC, coupe 1 (listed as Ex.43, 20 mg/kg): 69%; quantité de TH au niveau du LC, coupe 2 (listed as Ex.43, 20 mg/kg): 88%; quantité de TH au niveau du LC, coupe 3 (listed as Ex.43, 20 mg/kg): 87%; quantité de TH au niveau du LC, coupe 4 (listed as Ex.43, 20 mg/kg): 60%; quantité de TH au niveau du LC, coupe 5 (listed as Ex.43, 20 mg/kg): 36%; quantité de TH au niveau du LC, coupe 6 (listed as Ex.43, 20 mg/kg): 34%; quantité de TH au niveau du LC, coupe 8 (listed as Ex.43, 20 mg/kg): 4% |
| CCCN1CC[C@@H]2c3ccccc3N3NC(=O)C[C@H]1[C@@H]23 [Exemple 15, (3aSR,6aRS,10cRS)-4-Propyl-(3a,4,5,6,6a,10c-hexahydro)-3H-1,4,10b-triazafluoranthén-2-one] | 79% | 75% | 72% | 79% | 33% | 27% | 7% | 5% | – |
| CN1CCC[C@@H]2C(=O)N3c4ccccc4C[C@H]3[C@@H]21 (racemic) [Exemple 7, (4aSR,11aSR,11bRS)-1-Méthyl-1,2,3,4,4a,11,11a,11b-octahydropyrido[2',3':3,4]pyrrolo[1,2-a]indol-5-one] | – | – | – | – | – | – | – | – | quantité de TH au niveau du LC, coupe 1 (listed as Ex.7, 20 mg/kg): 59%; quantité de TH au niveau du LC, coupe 2 (listed as Ex.7, 20 mg/kg): 57%; quantité de TH au niveau du LC, coupe 3 (listed as Ex.7, 20 mg/kg): 57%; quantité de TH au niveau du LC, coupe 4 (listed as Ex.7, 20 mg/kg): 51%; quantité de TH au niveau du LC, coupe 5 (listed as Ex.7, 20 mg/kg): 28%; quantité de TH au niveau du LC, coupe 6 (listed as Ex.7, 20 mg/kg): 23%; quantité de TH au niveau du LC, coupe 7 (listed as Ex.7, 20 mg/kg): 13%; quantité de TH au niveau du LC, coupe 8 (listed as Ex.7, 20 mg/kg): 4% |
| O=C1C[C@@H]2[C@H]3[C@@H](CCN2Cc2ccccc2)c2ccccc2N13 (racemic) [Exemple 53, (3aRS,10bSR,10cRS)-3-Benzyl-2,3,3a,4,10b,10c-hexahydrobenzo [b]pyrido [2,3,4-gh]pyrrolizin-5(1H)-one] | 82% | 68% | 64% | 71% | 53% | 52% | 32% | 18% | – |
| Cc1ccc2c(c1)cc1n2C(=O)C2=C1N(C)CCC2 [Exemple 38, 1,9-Diméthyl-1,2,3,4-tétrahydropyrido[2',3':3,4]pyrrolo[1,2-a]indol-5-one] | 64% | 99% | 76% | 62% | 27% | 14% | -3% | 5% | – |
| O=C1[C@H]2CCCN[C@H]2[C@@H]2Cc3cc(F)ccc3N12 (racemic) [Exemple 24, (4aSR,11aSR,11bRS)-9-Fluoro-1,2,3,4,4a,11,11a,11b-octahydropyrido[2',3':3,4]pyrrolo[1,2-a]indol-5-one] | 51% | 71% | 63% | 55% | 44% | 33% | 6% | 3% | – |

Reference: patent publication EP2102204B1, “NEW AMINOPYRROLO[1,2- A]INDOLE ET AMINOPYRIDAZINO[1,6-A]INDOLE DERIVATIVES, METHOD FOR PREPARING THE SAME AND PHARMACEUTICAL COMPOSITIONS CONTAINING THE SAME” (Les Laboratoires Servier, priority 2007, dated 2008)
